Where two headings read alike, the source gives them in different places.
What was measured:
[1] = Particle size and polydispersity index of nanoparticle compositions (Zetasizer Nano ZS); assay type: physicochemical
Method in brief: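 In 1×PBS, the compositions were sized on a Zetasizer Nano ZS, which also reported their polydispersity index.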

[2] = Encapsulation efficiency of RNA (QUANT-IT RIBOGREEN RNA assay); assay type: physicochemical
Method in brief: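 Nanoparticle samples diluted to ~5 μg/mL RNA in TE buffer (pH 7.5), incubated with or without 2% Triton X-100 solution at 37 °C for 15 min, then RiboGreen added. Fluorescence read at ~480/520 nm, blank-subtracted; free RNA % = intact over Triton-disrupted signal.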

[3] = pKa of nanoparticle compositions; assay type: physicochemical
[4] = tested on: hEPO mRNA expression; test: Expression of hEPO in rats after intravenous administration; assay type: in vivo
Protocol: PBS (phosphate buffered saline) is used as control.
Formulations were prepared according to Table 5 and included mRNA encoding hEPO.
[…] After the 48 hour time point, livers and spleens were harvested and frozen.

[5] = tested on: LDLr−/− mice; test: Expression in LDLr−/− mice (LDLr dependence); assay type: in vivo; details: FIG. 9, FIG. 10
[6] = tested on: LDL-c; test: LDL levels in LDLr−/− mice after mRNA encoding the LDL receptor; assay type: in vivo, LDLR knockout mice
[7] = Lipid levels in liver and spleen 48 hours after administration; assay type: in vivo, rats; details: for concentration at 48 h: Sprague-Dawley, rat, intravenous
Protocol: Formulations were administered intravenously to rats (n=3 or 6) at a dosage of 0.2 mg/kg or 0.5 mg/kg (mpk) and hEPO levels measured at 3, 6, and 24 hour time points. After the 48 hour time point, livers and spleens were harvested and frozen.
The amount of lipid in the liver and spleen 48 hours after administration of a nanoparticle composition was also measured. […] In contrast, approximately 60% of doses including MC3 or Compound 22 remained in the liver after 48 hours. Less than 3% of the dose remained in the spleen for each composition tested.

[8] = tested on: hEPO mRNA expression; test: hEPO levels in non-human primates; assay type: in vivo; details: FIG. 10, up to ~50 h
Protocol: FIG. 10 is a graph showing hEPO levels in non-human primates up to ˜50 h after administration of a nanoparticle composition containing Compound 4, compared to a composition containing MC3.
The tolerability and efficacy of nanoparticle compositions to non-human primates is evaluated in Cynomolgus monkeys. Monkeys are administered an optimized nanoparticle composition including an mRNA encoding hEPO once weekly for four weeks. The levels of hEPO protein, mRNA, and cytokine profiles are measured using ELISA-based techniques before and 2, 6, 12, 24, 48, 72, and 120 hours after each administration.

[9] = tested on: GFP expression in liver cells; test: Mouse liver immunohistochemistry (IHC) with GFP mRNA; assay type: in vivo; details: FIG. 11, i.v., 0.5 mpk, 6 h (MC3, CD-1) or 8 h (Compound 4, LDLR knockout)
Protocol: FIG. 11 is a pair of images comparing the results of a mouse liver immunohistochemistry (IHC) using mRNA expressing green fluorescent protein (GFP) after administration of nanoparticle compositions containing Compound 4 and MC3.
FIG. 16 is a graph showing GFP levels in the livers of LDLR knockout mice at 30 min to 24 h after intravenous administration of an eGFP RNA in a lipid composition containing Compound 4. The liver GFP levels were determined via IHC. The square markers represent the number of GFP positive cells following administration of a dose of 0.1 mpk of the composition. The circular markers represent the number of GFP positive cells following administration of a dose of 0.5 mpk of the composition.

[10] = tested on: Luc expression; test: ApoE dependence of luciferase expression (ApoE knockout vs. wild-type mice); assay type: in vivo; details: 0.5 mpk, 6 h
Source text: FIG. 17 is a pair of graphs showing the ApoE dependence of luciferase (“Luc”) expression following administration of a composition containing Luc mRNA and Compound 4 to mice at a dose 0.5 mpk. The expression following administration of a composition containing Luc mRNA and MC3 is presented for comparison. […] The % change in Luc expression in livers of ApoE knockout vs. wild-type mice (i.e., (WT mean expression-KO mean expression)/WT mean expression]*100%) was 91.9% for Compound 4 and 97.5% for MC3. […] The % change in expression in spleens of ApoE knockout vs. wild-type mice was 4.34% for Compound 4 and 72.2% for MC3. Numbers 1-4 refer to the following: 1: Composition containing Compound 4, administered to ApoE knockout mice; 2: Composition containing Compound 4, administered to wild-type mice; 3: Composition containing MC3, administered to ApoE knockout mice; 4: Composition containing MC3, administered to wild-type mice.

[11] = tested on: luciferase (Luc) mRNA expression; test: Expression of Luc induced by sample formulations, whole-body bioluminescence after intravenous administration; assay type: in vivo; details: for Total Flux 3 hours / Total Flux 6 hours / Total Flux 24 hours: Table 2
Method in brief: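 Mice (n=6) dosed intravenously with Luc mRNA nanoparticle formulations at 0.5 mg/kg. Whole-body bioluminescence measured at 3, 6 and 24 h. Standard MC3 formulation and PBS control run alongside.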

[12] = tested on: modified luciferase expression; test: Expression of Luc in different organs (liver, lung, spleen, femur) 6 hours after intravenous administration; assay type: in vivo; details: Table 3, mice, i.v., 0.5 mpk
Protocol: The efficacy of the nanoparticle compositions presented in Tables 1, 1a, 17-1, 19-1, 20-1 and 21-1 was further evaluated by measuring the expression of modified luciferase in the liver, lung, spleen, and femur upon administration of a given composition. Formulations were administered intravenously to mice (n=3) at a dosage of 0.5 mpk and bioluminescence measured after 6 hours. The standard MC3 formulation and a PBS control were also tested.

[13] = tested on: IL-6; test: Cytokine production induced by sample formulations: IL-6; assay type: in vivo; details: Table 4; mice, i.v., 0.5 mpk, 6 hours; in pg/mL (unit assumed)
Method in brief: (§1)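 Mice received nanoparticle formulations intravenously at 0.5 mpk, with standard MC3 formulation and PBS as controls. Cytokine concentrations were measured 6 hours after dosing.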

[14] = tested on: IP-10; test: Cytokine production induced by sample formulations: IP-10; assay type: in vivo; details: Table 4; mice, i.v., 0.5 mpk, 6 hours; in pg/mL (unit assumed)
Method in brief: as §1

[15] = Tolerability / toxicity in rats (hEPO study); assay type: in vivo; details: FIG. 8, i.v., 2 mg/kg dose
[16] = Concentration of RNA in nanoparticle composition (ultraviolet-visible spectroscopy); assay type: physicochemical; details: Table 5, hEPO mRNA
Protocol: Ultraviolet-visible spectroscopy can be used to determine the concentration of a therapeutic and/or prophylactic agent (e.g., RNA) in nanoparticle compositions. 100 μL of the diluted formulation in 1×PBS is added to 900 μL of a 4:1 (v/v) mixture of methanol and chloroform. After mixing, the absorbance spectrum of the solution is recorded, for example, between 230 nm and 330 nm on a DU 800 spectrophotometer (Beckman Coulter, Beckman Coulter, Inc., Brea, Calif.). The concentration of therapeutic and/or prophylactic agent in the nanoparticle composition can be calculated based on the extinction coefficient of the therapeutic and/or prophylactic agent used in the composition and on the difference between the absorbance at a wavelength of, for example, 260 nm and the baseline value at a wavelength of, for example, 330 nm.

[17] = Table 1, rows without footnote mark
[18] = Table 1, rows without footnote mark (lipid:DOPE:cholesterol:PEG-DMG 40:20:38.5:1.5, Luc mRNA; MC3 standard formulation)
[19] = Table 5, hEPO mRNA, 40:20:38.5:1.5 Lipid:DOPE:Chol:PEG-DMG
[20] = Table 5, hEPO mRNA, 50:10:38.5:1.5 Lipid:DSPC:Chol:PEG-DMG

## CCCCCCCCCN(CCCCCCCCC)CCN(CCCCCCCCC)CC(=O)N1CCN(C(=O)CN(CCCCCCCCC)CCCCCCCCC)CC1 [Compound 4, 2-(Dinonylamino)-1-(4-(N-(2-(dinonylamino)ethyl)-N-nonylglycyl)piperazin-1-yl)ethan-1-one]
[1]; [17]
  PDI: 0.120
[1]; [18]
  Size (nm): 89.7 nm
[2]; [17]
  EE (%): 96.78%
[3]; [17]
  pKa: 7.12
[4]; hEPO expression in S.D. rats, 0.1 mpk
  AUC (0.1 mpk): 2.12E+06
[4]; hEPO expression in S.D. rats, 0.1 mpk, relative to MC3
  AUC/MC3 0.1 mpk: 1.3
[4]; hEPO expression in S.D. rats, 1 mpk
  AUC (1 mpk): 6.79E+07
[4]; hEPO expression in S.D. rats, 1 mpk, relative to MC3
  AUC/MC3 1 mpk: 0.58
[5]
  LDLr dependence of the lipid (in words): LDLr independent lipid
[6]; Mus musculus, Table 7b, LDLr−/− mice, 0.5 mpk, LDLr, read-out: LDL levels lipid/untreated LDLr−/− mice 0.5 mpk, LDLr
  response vs control in vivo at 0.5 mg/kg: 54%
[7]; liver, 48 hours after administration, read-out: Lipid in liver
  concentration at 48 h: 22000 ng/g
[7]; spleen, 48 hours after administration, read-out: Lipid in spleen
  concentration at 48 h: 5340 ng/g
[7]; liver, 48 hours after administration
  % remaining dose in liver: 38%
[7]; rat liver, 48 h
  % dose remainng Rat liver (48 h): 37.82%
[7]; spleen, 48 hours after administration
  % remaining dose in spleen: 0.61%
[8]
  expression of hEPO compared to MC3: 3 fold
[9]
  GFP protein expression in liver cell types (in words): less protein expression in Kupffer cells
[10]; FIG. 17 Graph A, liver
  % change in Luc expression in livers of ApoE knockout vs. wild-type mice: 91.9%
[10]; FIG. 17 Graph B, spleen
  % change in expression in spleens of ApoE knockout vs. wild-type mice: 4.34%

## CCCCCCCCCCCCN(CCCCCCCCCCCC)CCN(CCCCCCCCCCCC)CC(=O)N1CCN(C(=O)CN(CCCCCCCCCCCC)CCCCCCCCCCCC)CC1 [Compound 11, 2-(Didodecylamino)-1-(4-(N-(2-(didodecylamino)ethyl)-N-dodecylglycyl)piperazin-1-yl)ethan-1-one]
[1]; [17]
  PDI: 0.099
[1]; [18]
  Size (nm): 87.4 nm
[2]; [17]
  EE (%): 99.5%
[3]; [17]
  pKa: 6.54
[11]; mice, i.v., 0.5 mg/kg, 3 hours
  Total Flux 3 hours: 1.23E+10
[11]; mice, i.v., 0.5 mg/kg
  Total Flux 6 hours: 3.81E+09
  Total Flux 24 hours: 8.20E+08
[12]
  Total Flux Femur: 1.47E+06
  Total Flux Liver: 1.67E+09
  Total Flux Lung: 2.21E+06
  Total Flux Spleen: 7.21E+06
[13]
  IL-6: 250
[14]
  IP-10: 3305
[4]; FIG. 8, rats, i.v., 2 mpk (Graph A)
  hEPO expression in rats (in words): comparable to MC3
[5]
  LDLr dependence of the lipid (in words): LDLr independent lipid
[6]; FIG. 9 Graph B, mRNA encoding the LDL receptor, 0.5 and 1 mpk
  LDL-c levels in LDLR knockout mice (in words): found to drop
[15]
  tolerability / toxicity in rats (in words): improved tolerability as compared to KL22

## CCCCCCCCCCCCN(CCCCCCCCCCCC)CCN(CCCCCCCCCCCC)CCN1CCN(CCN(CCCCCCCCC)CCCCCCCCC)CC1 [Compound 23, N^1-(2-(4-(2-(Dinonylamino)ethyl)piperazin-1-yl)ethyl)-N^1,N^2,N^2-tridodecylethane-1,2-diamine]
[1]; [17]
  PDI: 0.058
[1]; [18]
  Size (nm): 85.4 nm
[1]; [19]
  PDI: 0.16
  Size (nm): 98.5 nm
[1]; [20]
  PDI: 0.11
  Size (nm): 95.2 nm
[2]; [17]
  EE (%): 82.9%
[2]; [19]
  EE (%): 77.19%
[2]; [20]
  EE (%): 51.46%
[3]; [17]
  pKa: 6.07
[3]; [19]
  pKa: 6.070
[3]; [20]
  pKa: 6.164
[16]; 40:20:38.5:1.5 Lipid:DOPE:Chol:PEG-DMG
  Conc.: 438.20 µg/mL
[16]; 50:10:38.5:1.5 Lipid:DSPC:Chol:PEG-DMG
  Conc.: 454.58 µg/mL
[11]; mice, i.v., 0.5 mg/kg, 3 hours
  Total Flux 3 hours: 2.33E+10
  total flux after 3 hours, rank within the named table (in words): highest flux after 3 hours
[11]; mice, i.v., 0.5 mg/kg
  Total Flux 6 hours: 3.40E+10
  Total Flux 24 hours: 1.06E+09
[11]; Table 7a
  Luc expression in mice compared with MC3 (in words): several fold higher
[12]
  Total Flux Femur: 3.17E+06
  Total Flux Liver: 4.94E+09
  Total Flux Lung: 1.51E+07
  Total Flux Spleen: 2.95E+07
[13]
  IL-6: 259
[14]
  IP-10: 3702
[15]
  tolerability / toxicity in rats (in words): toxic

Source: patent US10195156B2, “Compounds and compositions for intracellular delivery of agents” (ModernaTX, Inc., priority 2015, dated 2019)
